From patent US20250275540A1, “USE OF PROTOPORPHYRINOGEN OXIDASE” (BEIJING DABEINONG BIOTECHNOLOGY CO., LTD., priority 2022, published 2025)

Tested on: transgenic Arabidopsis thaliana T1 plants
Experiment: Detection of the herbicide tolerance of the transgenic Arabidopsis thaliana plants
Assay type: in vivo
Conditions: for The grade of pesticide damage/plant: 0 / The grade of pesticide damage/plant: 1 / The grade of pesticide damage/plant: 2 / The grade of pesticide damage/plant: 3: 7 DAT
Text: The transformed Arabidopsis thaliana T1 plants were initially selected using glufosinate herbicide. The Arabidopsis thaliana T1 plants (PPOA-01) into which the PPOA-01 nucleotide sequence was introduced, the Arabidopsis thaliana T1 plants (PPOB-01) into which the PPOB-01 nucleotide sequence was introduced, the Arabidopsis thaliana T1 plants (PPOC-01) into which the PPOC-01 nucleotide sequence was introduced, the Arabidopsis thaliana T1 plants (PPOD-01) into which the PPOD-01 nucleotide sequence was introduced, the Arabidopsis thaliana T1 plants (PPOE-01) into which the PPOE-01 nucleotide sequence was introduced, the Arabidopsis thaliana T1 plants (PPOF-01) into which the PPOF-01 nucleotide sequence was introduced, the Arabidopsis thaliana T1 plants (PPO-AP-01) into which the PPO-AP-01 nucleotide sequence was introduced, and the Arabidopsis thaliana T1 plants (control vector) into which the control vector was introduced, the wild-type Arabidopsis thaliana plants (CK) (with 24 plants being included in each genotype) (18 days after sowing) were sprayed with saflufenacil at three concentrations (25 g ai/ha (one-fold field concentration, 1×), 100 g ai/ha (four-fold field concentration, 4×), and 0 g ai/ha (water, 0×)), oxyfluorfen at three concentrations (180 g ai/ha (one-fold field concentration, 1×), 720 g ai/ha (four-fold field concentration, 4×), and 0 g ai/ha (water, 0×)), and flumioxazin at three concentrations (60 g ai/ha (one-fold field concentration, 1×), 240 g ai/ha (four-fold field concentration, 4×), and 0 g ai/ha (water, 0×) to determine the tolerance of Arabidopsis thaliana to the herbicides. After 7 days of spraying (7 DAT), the damage level of each plant caused by the herbicide was evaluated according to the average of the damage levels (%) of plants (the average of the damage levels (%) of plants=the injured leaf area/the total leaf area×100%), i.e., the grade of pesticide damage: grade 0 means that the growth status of plants is essentially consistent with those sprayed with the blank solvent (water); grade 1 means that the average of the damage levels of plants is less than 10%; grade 2 means that the average of the damage levels of plants is greater than 10%; and grade 3 means that the average of the damage levels of plants is 100%. The plants having a growth status falling within grades 0 and 1 are classified as highly resistant plants; those having a growth status falling within grade 2 are classified as poorly resistant plants; and those having a growth status falling within grade 3 are classified as non-resistant plants.

[1] = genotype Control vector, 180 g ai/ha
[2] = genotype Control vector, 720 g ai/ha
[3] = genotype PPO-AP-01, 180 g ai/ha
[4] = genotype PPO-AP-01, 720 g ai/ha

## CCOc1cc(Oc2ccc(C(F)(F)F)cc2Cl)ccc1[N+](=O)[O-] [oxyfluorfen, 2-chloro-1-(3-ethoxy-4-nitrophenoxy)-4-trifluoromethylbenzene]
Arabidopsis thaliana
  effective dose distinguishing sensitive plants from plants having an average level of resistance: 180 g ai/ha
Genotype CK, 180 g ai/ha
  The grade of pesticide damage/plant: 0: 0 plant
  The grade of pesticide damage/plant: 1: 0 plant
  The grade of pesticide damage/plant: 2: 0 plant
  The grade of pesticide damage/plant: 3: 24 plant
Genotype CK, 720 g ai/ha
  The grade of pesticide damage/plant: 0: 0 plant
  The grade of pesticide damage/plant: 1: 0 plant
  The grade of pesticide damage/plant: 2: 0 plant
  The grade of pesticide damage/plant: 3: 24 plant
[1]
  The grade of pesticide damage/plant: 0: 0 plant
  The grade of pesticide damage/plant: 1: 0 plant
  The grade of pesticide damage/plant: 2: 0 plant
  The grade of pesticide damage/plant: 3: 24 plant
[2]
  The grade of pesticide damage/plant: 0: 0 plant
  The grade of pesticide damage/plant: 1: 0 plant
  The grade of pesticide damage/plant: 2: 0 plant
  The grade of pesticide damage/plant: 3: 24 plant
[3]
  The grade of pesticide damage/plant: 0: 0 plant
  The grade of pesticide damage/plant: 1: 0 plant
  The grade of pesticide damage/plant: 2: 0 plant
  The grade of pesticide damage/plant: 3: 24 plant
[4]
  The grade of pesticide damage/plant: 0: 0 plant
  The grade of pesticide damage/plant: 1: 0 plant
  The grade of pesticide damage/plant: 2: 0 plant
  The grade of pesticide damage/plant: 3: 24 plant
Genotype PPO-AP-01, at different concentrations
  tolerance to the herbicide (in words): no tolerance
Genotype PPOA-01, 180 g ai/ha
  The grade of pesticide damage/plant: 0: 24 plant
  The grade of pesticide damage/plant: 1: 0 plant
  The grade of pesticide damage/plant: 2: 0 plant
  The grade of pesticide damage/plant: 3: 0 plant
Genotype PPOA-01, 720 g ai/ha
  The grade of pesticide damage/plant: 0: 24 plant
  The grade of pesticide damage/plant: 1: 0 plant
  The grade of pesticide damage/plant: 2: 0 plant
  The grade of pesticide damage/plant: 3: 0 plant
Genotype PPOB-01, 180 g ai/ha
  The grade of pesticide damage/plant: 0: 24 plant
  The grade of pesticide damage/plant: 1: 0 plant
  The grade of pesticide damage/plant: 2: 0 plant
  The grade of pesticide damage/plant: 3: 0 plant
Genotype PPOB-01, 720 g ai/ha
  The grade of pesticide damage/plant: 0: 24 plant
  The grade of pesticide damage/plant: 1: 0 plant
  The grade of pesticide damage/plant: 2: 0 plant
  The grade of pesticide damage/plant: 3: 0 plant
Genotype PPOC-01, 180 g ai/ha
  The grade of pesticide damage/plant: 0: 24 plant
  The grade of pesticide damage/plant: 1: 0 plant
  The grade of pesticide damage/plant: 2: 0 plant
  The grade of pesticide damage/plant: 3: 0 plant
Genotype PPOC-01, 720 g ai/ha
  The grade of pesticide damage/plant: 0: 24 plant
  The grade of pesticide damage/plant: 1: 0 plant
  The grade of pesticide damage/plant: 2: 0 plant
  The grade of pesticide damage/plant: 3: 0 plant
Genotype PPOD-01, 180 g ai/ha
  The grade of pesticide damage/plant: 0: 24 plant
  The grade of pesticide damage/plant: 1: 0 plant
  The grade of pesticide damage/plant: 2: 0 plant
  The grade of pesticide damage/plant: 3: 0 plant
Genotype PPOD-01, 720 g ai/ha
  The grade of pesticide damage/plant: 0: 24 plant
  The grade of pesticide damage/plant: 1: 0 plant
  The grade of pesticide damage/plant: 2: 0 plant
  The grade of pesticide damage/plant: 3: 0 plant
Genotype PPOE-01, 180 g ai/ha
  The grade of pesticide damage/plant: 0: 22 plant
  The grade of pesticide damage/plant: 1: 2 plant
  The grade of pesticide damage/plant: 2: 0 plant
  The grade of pesticide damage/plant: 3: 0 plant
Genotype PPOE-01, 720 g ai/ha
  The grade of pesticide damage/plant: 0: 15 plant
  The grade of pesticide damage/plant: 1: 9 plant
  The grade of pesticide damage/plant: 2: 0 plant
  The grade of pesticide damage/plant: 3: 0 plant
Genotype PPOF-01, 180 g ai/ha
  The grade of pesticide damage/plant: 0: 24 plant
  The grade of pesticide damage/plant: 1: 0 plant
  The grade of pesticide damage/plant: 2: 0 plant
  The grade of pesticide damage/plant: 3: 0 plant
Genotype PPOF-01, 720 g ai/ha
  The grade of pesticide damage/plant: 0: 24 plant
  The grade of pesticide damage/plant: 1: 0 plant
  The grade of pesticide damage/plant: 2: 0 plant
  The grade of pesticide damage/plant: 3: 0 plant
Genotypes PPOA-01 to PPOF-01, at different concentrations, compared with the control vector and CK
  tolerance to the herbicide (in words): high-resistant tolerance
